Results from patent publication US20160206633A1, “dhS1P AND USE OF SAME AS AN ANTICANCER THERAPEUTIC AND IMMUNOMODULATOR” (Penn State Research Foundation, Inc., priority 2013, published 2016).

Experiments:
[1] = test system: Gr-1+CD11b+ MDSC-like cells from MaFIA mice; assay: Lineage tracing: MDSC-like cells from tumor-bearing MaFIA mice exposed to dhS1P, flow cytometry; assay type: cell-based, MaFIA mice (C57BL/6J background); design: dose or concentration left out as unconfirmed
Source text: Gr-1+CD1 b+MDSC-like cells were isolated by high-speed cell sorting (85-95% purity) from the splenocytes of tumor-bearing MaFIA (Macrophage Fas-Induced Apoptosis) mice. These mice are on the C57BL/6J background and contain a transgene expressing both an inducible apoptosis feature as well as EGFP (enhanced green fluorescent protein). This transgene is expressed from the Csfr1 promoter (CD115), which restricts expression of the transgene to the myeloid lineage. Isolated MDSC-like cells were exposed to dhS1P ([…]) for 24 hours, and flow cytometry was performed to confirm both the disappearance of MDSC-like cells (Gr-1+CD11b+), and the appearance of a lymphocyte population (CD19+CD45R B220+). Lineage tracing using the EGFP feature of the transgene verified that dhS1P-induced lymphocytes (blue population) are EGFP negative and therefore not of myeloid-origin. This is in direct contrast with the EGFP positive MDSC-like cells (red population).

[2] = test system: splenic hematopoietic progenitors (Lineage-Sca-1+CD117+); assay: Isolated splenic hematopoietic progenitors exposed to dhS1P, multicolor flow cytometry; assay type: cell-based, athymic nude mice; conditions: 5 μM, 24-hour culture
Method: (A) Splenic IMCs (Gr-1+CD11b+, also defined as MDSCs: myeloid-derived suppressor cells) were isolated from MDA-MB-231 tumor-bearing athymic nude mice and exposed to BSA, S1P (5 μM), or dhS1P (5 μM). Following 24-hour culture incubation, cells were labeled with specific antibodies and analyzed by multicolor flow cytometry (red: IMCs; blue: possible B-cells). (B) Splenic IMCs were isolated from MDA-MB-231 tumor-bearing athymic nude mice and cultured (5×10^4 cells/mL) in GEMM-supportive semi-solid media with BSA, S1P (5 μM), or dhS1P (5 μM). GEMM colonies (multipotent myeloid progenitor cells) were visualized and counted after 3 weeks of culture. ANOVA, *p<0.01 compared to no treatment or BSA-treatment, ***p<0.001 compared to S1P-treatment, n≧3. (C) Splenic hematopoietic progenitors (Lineage-Sca-1+CD117+) were isolated from MDA-MB-231 tumor-bearing athymic nude mice and exposed to BSA, S1P (5 μM), or dhS1P (5 μM). Following 24-hour culture incubation, cells were labeled with specific antibodies and analyzed by multicolor flow cytometry.
Splenocytes were harvested from tumor-bearing mice by mechanical disruption in red blood cell lysis buffer. Splenocytes were washed, and resuspended in PBS with Mouse BD Fc Block (1 μg per 1×10^6 splenocytes), and incubated for 15 minutes at 4° C. For IMC isolation, antibodies targeting Gr-1 (FITC) and CD11b (PE-Cy7) were added. […]

Structure (SMILES): CCCCCCCCCCCCCCC[C@@H](O)[C@@H](N)COP(=O)(O)O [dhS1P, dihydrosphingosine-1-phosphate]
- Lymphocyte population (CD19+CD45R B220+) [1]: appearance
- MDSC-like cells (Gr-1+CD11b+) [1]: disappearance
- CD19+CD45R B220+ cellular population from isolated hematopoietic progenitors [2]: mediated the expansion
